Experimental data from patent EP4000623A1, “5-(2-(1H-INDOL-3-YL))-ETHYL)- PIPERAZIN-2-ONE DERIVATIVES FOR USE IN THE TREATMENT OF VIRAL INFECTIONS BY VIRUSES OF THE FAMILY CORONAVIRIDAE” (Consejo Superior De Investigaciones Científicas, priority 2020, dated 2022).
Read-outs that look alike come from different tables or passages of the source.

Assays:
SARS-CoV-2 [1] = experiment: Antiviral potency against SARS-CoV-2 in Vero-E6 cells (protection from virus-induced cytopathic effect / intracellular viral antigen accumulation); format: cell-based
[2] = Determination of cytotoxicity by MTT colorimetric assay; format: cell-based; details: African green monkey, uninfected Vero-E6 cells, 50 to 0.78 µM
Description: Determination of cytotoxicity by MTT colorimetric assay: To evaluate the cytotoxicity profile of the selected compounds MTT assays were performed in Vero-E6 cells. Uninfected cells were incubated with a range of compound concentrations (from 50 to 0.78 µM) for forty-eight hours, time at which the MTT substrate [3-(4,5-dimethylthiazol-2-yl)-2,5-diphenyltetrazolium bromide] was added and the formation of formazan precipitates was evaluated two hours later, using a colorimetric readout. Vehicle-treated cells were used as reference (100%).

hCoV-229E-GFP = format: cell-based, Human coronavirus 229E
SARS-CoV-2 [3] = experiment: Intracellular viral RNA quantitation by RT-qPCR; format: cell-based; details: 15µM; for intracellular viral RNA levels (in words): as compared with the uninfected controls; for % RNA relative to DMSO: Vero-E6, MOI 0.001, 48 h, SARS-CoV-2 E gene normalised to 18S, DMSO set as 100%
[4] = Severe acute respiratory syndrome coronavirus 2, Vero C1008, SARS-CoV-2 strain NL/2020, Vero-E6 cells, mean, read-out: EC50 mean
[5] = Severe acute respiratory syndrome coronavirus 2, Vero C1008, SARS-CoV-2 strain NL/2020, Vero-E6 cells, mean, read-out: EC90 mean

CC(C)(C)OC(=O)NCCCC[C@H]1C(=O)NCC([C@H](Cc2cn(C(=O)OC(C)(C)C)c3ccccc23)NC(=O)OC(C)(C)C)N1Cc1ccccc1 (stereo in doubt) [Example 4, (5R,3S)-4-benzyl-5-((S)-1-(tert-butoxycarbonyl)amino-2-(1-(tert-butoxycarbonyl)(indol-3-yl))-ethyl)-3-(4-(tert-butoxycarbonyl)amino-butyl)-2-oxopiperazine]
EC50 (SARS-CoV-2 [1]; Severe acute respiratory syndrome coronavirus 2, Vero C1008, read-out: EC50 mean): 1.6 µM
EC90 (SARS-CoV-2 [1]; Severe acute respiratory syndrome coronavirus 2, Vero C1008, read-out: EC90 mean): 14.7 µM
CC50 at 48 h [2]: > 50 µM
% Reduction of hCoV-229E-GFP propagation (hCoV-229E-GFP): 97%

CC(C)(C)OC(=O)NCCCC[C@@H]1N[C@H]([C@H](Cc2cn(C(=O)OC(C)(C)C)c3ccccc23)NC(=O)OC(C)(C)C)CNC1=O [Example 2, (5S,3S)-5-((S)-1-(tert-butoxycarbonyl)amino-2-(1-(tert-butoxycarbonyl)(indol-3-yl))-ethyl)-3-(4-(tert-butoxycarbonyl)amino-butyl)-2-oxopiperazine]
EC50 (SARS-CoV-2 [1]; [4]): 15.3 µM
EC90 (SARS-CoV-2 [1]; [5]): 46.7 µM
CC50 at 48 h [2]: > 50 µM

CC(C)(C)OC(=O)CN1[C@@H]([C@H](Cc2cn(C(=O)OC(C)(C)C)c3ccccc23)NC(=O)OC(C)(C)C)CNC(=O)[C@@H]1CCCCNC(=O)OC(C)(C)C [Example 5, (5R,3S)-5-((S)-1-(tert-butoxycarbonyl)amino-2-(1-(tert-butoxycarbonyl)-(indol-3-yl))-ethyl)-4(tert-butoxycarbonyl)methyl-3-(4-(tert-butoxycarbonyl)aminobutyl)-2-oxopiperazine]
EC50 (SARS-CoV-2 [1]; [4]): 1.93 µM
EC90 (SARS-CoV-2 [1]; [5]): 7.33 µM
CC50 at 48 h [2]: > 50 µM
% Reduction of hCoV-229E-GFP propagation (hCoV-229E-GFP): 94%

CC(C)(C)OC(=O)NCCCC[C@H]1C(=O)NC[C@H]([C@H](Cc2cn(C(=O)OC(C)(C)C)c3ccccc23)NC(=O)OC(C)(C)C)N1Cc1ccccc1 [Example 3, (5R,3S)-4-benzyl-5-((S)-1-(tert-butoxycarbonyl)amino-2-(1-(tert-butoxycarbonyl)(indol-3-yl))-ethyl)-3-(4-(tert-butoxycarbonyl)amino-butyl)-2-oxopiperazine]
EC50 (SARS-CoV-2 [1]; [4]): 6.33 µM
EC90 (SARS-CoV-2 [1]; [5]): 14.3 µM
CC50 at 48 h [2]: > 50 µM
intracellular viral RNA levels (in words) (SARS-CoV-2 [3]): virtually undetectable levels
% RNA relative to DMSO (SARS-CoV-2 [3]): 10^-2%
% Reduction of hCoV-229E-GFP propagation (hCoV-229E-GFP): 94%

CC(C)(C)OC(=O)CN1[C@@H](CCCCNC(=O)OC(C)(C)C)C(=O)NC[C@H]1[C@H](Cc1cn(C(=O)OC(C)(C)C)c2ccccc12)NC(=O)OC(C)(C)C [Example 6, (5S,3S)-5-((S)-1-(tert-butoxycarbonyl)amino-2-(1-(tert-butoxycarbonyl)-(indol-3-yl))-ethyl)-4(tert-butoxycarbonyl)methyl-3-(4-(tert-butoxycarbonyl)aminobutyl)-2-oxopiperazine]
EC50 (SARS-CoV-2 [1]; [4]): 3.17 µM
EC90 (SARS-CoV-2 [1]; [5]): 9.67 µM
CC50 at 48 h [2]: > 50 µM
intracellular viral RNA levels (in words) (SARS-CoV-2 [3]): virtually undetectable levels
% RNA relative to DMSO (SARS-CoV-2 [3]): 10^-4%
% Reduction of hCoV-229E-GFP propagation (hCoV-229E-GFP): 98%
